Here are results for 3 molecules from patent US20050118381A1, “Diimonium salt mixtures, aminium salts mixtures and use thereof” (priority 2002, published 2005).

Format in all cases: physicochemical
Series [1] in a line: Solubility test of diimonium salt compound. As for the experimental part:
Solubility of compounds No. 1a, No. 3a, No. 6a, No. 2a, No. 7a, No. 13a and No. 12a obtained in the above Examples in diacetone alcohol (DAA), methyl ethyl ketone (MEK) and cyclohexanone was measured. Measurement of solubility was conducted in the same manner except that hexafluoroantimonate of tetrakis{p-di(3-cyanopropyl)aminophenyl}phenylenediimonium (Comparative Sample 1) was used instead of the above compounds.

A short description of series [2]: Heat resistance stability test of near-infrared absorption filter coat film. On the procedure:
(§1) 1.2 parts of compound No. 1a (Sample 1X), No. 6a (Sample 2X) and No. 15a (Sample 3X) was each dissolved in 18.8 parts of MEK. To the solution was added 80 parts of a resin solution obtained by dissolving 25 parts of an acrylic resin (Dianal BR-80, available from Mitsubishi Rayon Co., Ltd.) in 75 parts of MEK to prepare a coating solution. The coating solution was applied to a polyester film in a thickness of 2 to 4 μm and dried at 80° C. to obtain the near-infrared absorption filter of the present invention.
(§2) The obtained coat film was subjected to a heat resistance stability test in a hot air dryer at 80° C. for a predetermined time and a moisture heat resistance stability test in a temperature and humidity controlled apparatus under conditions of 60° C. and 95% RH for a predetermined time. In addition, Samples 1X and 2X were subjected to a lightfastness test using a weatherometer (Ci4000, made by Atlas Electric Devices Co.) under conditions of light source output: 0.36 W/m^2, bath temperature: 24° C., black panel temperature: 40° C. and humidity: 30% RH for 50 hours. After the tests, the color of the film was measured by an ultraviolet/visible light spectrophotometer (UV-2100, made by Shimadzu Corporation) to calculate L*, a*, b* values and stability was evaluated from the variation of the b* value. The results of heat resistance test are shown in Table 9, the results of the moisture heat resistance test are shown in Table 10 and the results of the lightfastness test are shown in Table 11.
(§3) Coat films were prepared and evaluated in the same manner except that hexafluoroantimonate of tetrakis{p-di(n-butyl)aminophenyl}phenylenediimonium (Comparative Sample 1X) and hexafluoroantimonate of tetrakis{p-di(3-cyanopropyl)aminophenyl}phenylenediimonium (Comparative Sample 2X) were used instead of the above compounds.

The nature of series [3]: Moisture heat resistance stability test of near-infrared absorption filter coat film. Particulars: acrylic resin coat film. As for the experimental part: as §1, §2, §3
The nature of series [4]: Lightfastness test of near-infrared absorption filter coat film. Particulars: acrylic resin coat film. As for the experimental part:
as §1
The obtained coat film was subjected to a heat resistance stability test in a hot air dryer at 80° C. for a predetermined time and a moisture heat resistance stability test in a temperature and humidity controlled apparatus under conditions of 60° C. and 95% RH for a predetermined time. […] After the tests, the color of the film was measured by an ultraviolet/visible light spectrophotometer (UV-2100, made by Shimadzu Corporation) to calculate L*, a*, b* values and stability was evaluated from the variation of the b* value. […]
as §3

Series [5] can be described thus: Lightfastness test of dye film containing diimonium salt compound. On the procedure: (§4) 0.3 part of cyanine dye (OM-57) was dissolved in 15 parts of tetrafluoropropanol and 0.04 part of compound No. 2a was added to the solution to prepare coating. The obtained coating was spin coated on a polycarbonate substrate to prepare a dye film (Sample 1Y). The obtained dye film was subjected to a lightfastness test using a weatherometer (Ci4000, made by Atlas Electric Devices Co.) under conditions of light source output: 0.36 W/m^2, bath temperature: 24° C., black panel temperature: 40° C. and humidity: 30% RH for 50 hours, by applying light from the substrate side. Then the residual ratio of the cyanine dye was measured by a spectrophotometer.
Further, dye films were prepared and evaluated in the same manner except that compounds of No. 3a (Sample 2Y), No. 7a (Sample 3Y) and No. 10a (Sample 4Y), compounds of No. 12a (Sample 5Y) and No. 13a (Sample 6Y) and compound No. 19a (Sample 7Y) were used instead of compound No. 2a, and the results are shown in Table 12.
For comparison, a dye film was prepared and evaluated in the same manner except that hexafluoroantimonate of tetrakis{p-di(n-butyl)aminophenyl}phenylenediimonium (Comparative Sample 1Y) was used instead of compound No. 2a.

Series [6] in a line: Lightfastness test of dye film containing aminium salt compound. On the procedure: as §4, with “2b” for “2a”, “1Z).” for “1Y).”, “150” for “50”
Further, dye films were prepared and evaluated in the same manner except that compounds of No. 3b (Sample 2Z), No. 4b (Sample 3Z) and No. 7b (Sample 4Z) and compound No. 12b (Sample 5Z) were used instead of compound No. 2b, and the results are shown in Table 13.
For comparison, a dye film was prepared and evaluated in the same manner except that hexafluoroantimonate of tetrakis{p-di(n-butyl)aminophenyl}phenylenediimonium (Comparative Sample 1Z) was used instead of compound No. 2b.

Series [7] is described as follows: Solubility test of aminium salt compound. As for the experimental part: Solubility of Compounds No. 1b, No. 3b, No. 4b, No. 6b, No. 7b, No. 12b, No. 13b, No. 14b and No. 15b obtained in the above Examples in diacetone alcohol (DAA), methyl ethyl ketone (MEK), tetrahydrofuran (THF) and methylcellosolve was measured. Measurement of solubility was conducted in the same manner except that hexafluoroantimonate of tetrakis{p-di(3-cyanopropyl)aminophenyl}phenyleneaminium (Comparative Sample 2) and hexafluorophosphate thereof (Comparative Sample 3) were used instead of the above compounds.

Setting [8] is: dye film: 0.3 part OM-57 + 0.04 part compound on polycarbonate, before irradiation.

With “hexafluoroantimonate of tetrakis{p-di(3-cyanopropyl)aminophenyl}phenylenediimonium [Comparative Sample 1]”, the solubility cyclohexane entry in series [1] (column head cyclohexane (text: cyclohexanone)) is “insoluble”. Besides, the “solubility DAA” value in series [1] (in diacetone alcohol (DAA)) is on record as “insoluble”. Also, in series [1] (in methyl ethyl ketone (MEK)), the “solubility MEK” value is recorded as “insoluble”. The “solubility in MEK (film preparation)” value in series [2] (1.2 parts in 18.8 parts of MEK, impossible to prepare a film) is listed as “poor”.

Regarding `CCCCN(CCCC)c1ccc([N+](=C2C=CC(=[N+](c3ccc(N(CCCC)CCCC)cc3)c3ccc(N(CCCC)CCCC)cc3)C=C2)c2ccc(N(CCCC)CCCC)cc2)cc1.[F][Sb-]([F])([F])([F])([F])[F].[F][Sb-]([F])([F])([F])([F])[F]` [Comparative Sample 1X, hexafluoroantimonate of tetrakis{p-di(n-butyl)aminophenyl}phenylenediimonium], the “b* value initial stage” value in series [2] (acrylic resin coat film on polyester film, before hot air dryer 80° C.) turned out to be 2.85; in series [3] (before 60° C. and 95% RH), 2.85; in series [4] (before weatherometer) it was 2.85. The “b* value after 4 days” value in series [2] (acrylic resin coat film, hot air dryer 80° C., 4 days) stood at 3.65; in series [3] (60° C. and 95% RH, 4 days), 4.23. The “b* value after 7 days” value is given as 3.93 in series [2] (acrylic resin coat film, hot air dryer 80° C., 7 days); 4.69 in series [3] (60° C. and 95% RH, 7 days). Further, the “b* value after 14 days” value in series [2] (acrylic resin coat film, hot air dryer 80° C., 14 days) is 4.30; in series [3] (60° C. and 95% RH, 14 days), 5.55. Moreover, in series [4] (weatherometer 0.36 W/m^2, 24° C., 30% RH, 50 hours), the “b* value after 50 hours” value is 6.49. For the same molecule, the “residual ratio of cyanine dye initial stage” value in series [5] (setting [8]) and in series [6] (setting [8]) was 100% each time. The “residual ratio of cyanine dye after 50 hours” value in series [5] (dye film: 0.3 part OM-57 + 0.04 part compound, weatherometer 0.36 W/m^2, 50 hours) amounted to 69%. Moreover, the “residual ratio of cyanine dye after 150 hours” value in series [6] (dye film: 0.3 part OM-57 + 0.04 part compound, weatherometer 0.36 W/m^2, 150 hours) amounted to 29%.

On to “hexafluoroantimonate of tetrakis{p-di(3-cyanopropyl)aminophenyl}phenyleneaminium [Comparative Sample 2]”, for which the “solubility DAA” value in series [7] (in diacetone alcohol (DAA)) is reported as 1.2 wt %. Moreover, the “solubility MEK” value in series [7] (in methyl ethyl ketone (MEK)) stood at 1.7 wt %. The “solubility THF” value in series [7] (in tetrahydrofuran (THF)) is reported as “insoluble”.
